Measurements from patent publication US20230075856A1, “CYCLIC SULFAMIDE COMPOUNDS FOR TREATMENT OF HBV” (Assembly Biosciences, Inc., priority 2018, published 2023).
Where two headings read alike, the source gives them in different places.

Test system: HBV viral load production from HepAD38 cells
Test: Viral production from HepAD38 cells: viral load in supernatant by qPCR of the HBV core sequence
Assay type: cell-based
Conditions: 5 days incubation, qPCR of supernatant HBV DNA vs DMSO control, read-out: viral load lowering EC50 (Activity)
Procedure, shortened: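 HepAD38 cells seeded at 50,000/well in tetracycline-free medium with 2% FBS, treated with compounds (final top concentration 10 μM) for 5 days at 37 °C. Supernatant HBV DNA quantified by TaqMan qPCR of core sequence against HBV DNA standards, relative to DMSO controls; EC50 by four-parameter logistic fit.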

[1] = Hepatitis B virus, HePAD38, 120 h

SMILES | EC50 [nM] | EC50 [1] [nM]
CN1C(C(=O)Nc2ccc(F)c(Cl)c2)CC(C(=O)NC2CCN(c3cc(Cl)ccn3)CC2)NS1(=O)=O (single isomer, unassigned) [Compound 974-ISOMER-B, N3-(3-chloro-4-fluoro-phenyl)-N5-[1-(4-chloro-2-pyridyl)-4-piperidyl]-2-methyl-1,1-dioxo-1,2,6-thiadiazinane-3,5-dicarboxamide] | 50 to 100 | 
CN1C(C(=O)Nc2ccc(F)c(Cl)c2)CC(C(=O)NC2CCN(c3cc(CN4CCCCC4)ccn3)CC2)NS1(=O)=O (single isomer, unassigned) [Compound 975-ISOMER-A, N3-(3-chloro-4-fluoro-phenyl)-2-methyl-1,1-dioxo-N5-[1-[4-(1-piperidylmethyl)-2-pyridyl]-4-piperidyl]-1,2,6-thiadiazinane-3,5-dicarboxamide] |  | < 50
CN1CCC(Oc2ccc(-c3ncc(CNC(=O)C4CC(C(=O)Nc5ccc(F)c(Cl)c5)N(C)S(=O)(=O)N4)s3)cc2)CC1 (single isomer, unassigned) [Compound 979-ISOMER-A, N3-(3-chloro-4-fluoro-phenyl)-2-methyl-N5-[[2-[4-[(1-methyl-4-piperidyl)oxy]phenyl]thiazol-5-yl]methyl]-1,1-dioxo-1,2,6-thiadiazinane-3,5-dicarboxamide] |  | 100 to 10000
COc1ccccc1-c1ncc(CNC(=O)C2CC(C(=O)Nc3ccc(F)c(Cl)c3)N(C)S(=O)(=O)N2)s1 (single isomer, unassigned) [Compound 987-ISOMER-A, N3-(3-chloro-4-fluoro-phenyl)-N5-[[2-(2-methoxyphenyl)thiazol-5-yl]methyl]-2-methyl-1,1-dioxo-1,2,6-thiadiazinane-3,5-dicarboxamide] |  | < 50
COc1ccccc1-c1ncc(CNC(=O)C2CC(C(=O)Nc3ccc(F)c(Cl)c3)N(C)S(=O)(=O)N2)s1 (single isomer, unassigned) [Compound 987-ISOMER-B, N3-(3-chloro-4-fluoro-phenyl)-N5-[[2-(2-methoxyphenyl)thiazol-5-yl]methyl]-2-methyl-1,1-dioxo-1,2,6-thiadiazinane-3,5-dicarboxamide] | 100 to 10000 | 
CN1C(C(=O)Nc2ccc(F)c(Cl)c2)CC(C(=O)NCc2ccn(-c3ccccc3)n2)NS1(=O)=O (single isomer, unassigned) [Compound 991-ISOMER-A, N3-(3-chloro-4-fluoro-phenyl)-2-methyl-1,1-dioxo-N5-[(1-phenylpyrazol-3-yl)methyl]-1,2,6-thiadiazinane-3,5-dicarboxamide] |  | 100 to 10000
C[C@@H](NC(=O)C1CC(C(=O)Nc2ccc(F)c(Cl)c2)N(C)S(=O)(=O)N1)c1ccc(F)cc1 (single isomer, unassigned; isomer-a) [493-R-ISOMER-A] | < 50 | 
CN1C(C(=O)Nc2ccc(F)c(Cl)c2)CC(C(=O)NCc2cc(-c3ccccc3Cl)no2)NS1(=O)=O (single isomer, unassigned; isomer-a) [1025-ISOMER-A, N3-(3-chloro-4-fluro-phenyl)-N5-[[3-(2-chlorophenyl)isoxazol-5-yl]methyl]-2-methyl-1,1-dioxo-1,2,6-thiadiazinane-3,5-dicarboxamide] | < 50 | 
Cc1c(CNC(=O)C2CC(C(=O)Nc3ccc(F)c(Cl)c3)N(C)S(=O)(=O)N2)nnn1-c1ccccc1 (single isomer, unassigned; isomer-a) [1148-ISOMER-A, N3-(3-chloro-4-fluoro-phenyl)-2-methyl-N5-[(5-methyl-1-phenyl-triazol-4-yl)methyl]-1,1-dioxo-1,2,6-thiadiazinane-3,5-dicarboxamide] | 50 to 100 | 
Cc1ncc(CNC(=O)C2CC(C(=O)Nc3ccc(F)c(Cl)c3)N(C)S(=O)(=O)N2)s1 (single isomer, unassigned; isomer-a) [Compound 495-ISOMER-A, N3-(3-chloro-4-fluroo-phenyl)-2-methyl-N5-[(2-methylthiazol-5-yl)methyl]-1,1-dioxo-1,2,6-thiadiazinane-3,5-dicarboxamide] | 100 to 10000 | 
COC(=O)N1CCC(NC(=O)C2CC(C(=O)Nc3ccc(F)c(Cl)c3)N(CC(F)(F)F)S(=O)(=O)N2)CC1 (single isomer, unassigned; isomer-a) [Compound 893-ISOMER-A, methyl 4-[[5-[(3-chloro-4-fluroo-phenyl)carbamoyl]-1,1-dioxo-6-(2,2,2-triflurooethyl)-1,2,6-thiadiazinane-3-carbonyl]amino]piperidine-1-carboxylate] | < 50 | 
CN1C(C(=O)Nc2ccc(F)c(Cl)c2)CC(C(=O)NCc2ccccc2-n2ccnc2)NS1(=O)=O (single isomer, unassigned; isomer-a) [Compound 910-ISOMER-A, N3-(3-chloro-4-fluoro-phenyl)-N5-[(2-imidaozl-1-ylphenyl)methyl]-2-methyl-1,1-dioxo-1,2,6-thiadiazinane-3,5-dicarboxamide] | < 50 | 
CN1C(C(=O)Nc2ccc(F)c(Cl)c2)CC(C(=O)NCc2cnc(-c3ccc(O)cc3)s2)NS1(=O)=O (single isomer, unassigned; isomer-a) [Compound 924-ISOMER-A, N3-(3-chloro-4-fluroo-phenyl)-N5-[[2-(4-hydroxyphenyl)thiazol-5-yl]methyl]-2-methyl-1,1-dioxo-1,2,6-thiadiazinane-3,5-dicarboxamide] | 100 to 10000 | 
CN1C(C(=O)Nc2ccc(F)c(Cl)c2)CC(C(=O)NCc2cc(-c3ccccc3Cl)no2)NS1(=O)=O (single isomer, unassigned; isomer-b) [1025-ISOMER-B, N3-(3-chloro-4-fluoro-phenyl)-N5-[[3-(2-chlorophenyl)isoxazol-5-yl]methyl]-2-methyl-1,1-dioxo-1,2,6-thiadicarboxamidediazinane-3,5-] | 100 to 10000 | 
Cc1nc(-c2ccc(F)cc2F)sc1CNC(=O)C1CC(C(=O)Nc2ccc(F)c(Cl)c2)N(C)S(=O)(=O)N1 (single isomer, unassigned; isomer-b) [1083-ISOMER-B, N3-(3-chloro-4-fluoro-phenyl)-N5-[[2-(2,4-difluroophenyl)-4-methyl-thiazol-5-yl]methyl]-2-methyl-1,1-dioxo-1,2,6-thiadiazinane-3,5-dicarboxamide] | 100 to 10000 | 
Cc1c(CNC(=O)C2CC(C(=O)Nc3ccc(F)c(Cl)c3)N(C)S(=O)(=O)N2)nnn1-c1ccccc1 (single isomer, unassigned; isomer-b) [1148-ISOMER-B, N3-(3-chloro-4-fluoro-phenyl)-2-methyl-N5-[(5-methyl-1-phenyl-triazol-4-yl)methyl]-1,1-dioxo-1,2,6-thiadiazinane-3,5-dicarboxamide] | 100 to 10000 | 
Cc1cccc(CNC(=O)C2CC(C(=O)Nc3ccc(F)c(Cl)c3)N(C)S(=O)(=O)N2)n1 (single isomer, unassigned; isomer-b) [Compound 716-ISOMER-B, N3-(3-chloro-4-fluoro-phenyl)-2-methyl-N5-[(6-methyl-2-pyridyl)methyl]-1,1-dioxo-1,2,6-thiadiazinane-3,5-dicarboxamde] | 100 to 10000 | 
COC(=O)N1CCC(NC(=O)C2CC(C(=O)Nc3ccc(F)c(Cl)c3)N(CC(F)(F)F)S(=O)(=O)N2)CC1 (single isomer, unassigned; isomer-b) [Compound 893-ISOMER-B, methyl 4-[[5-[(3-chloro-4-fluroo-phenyl)carbamoyl]-1,1-dioxo-6-(2,2,2-trifluoroethyl)-1,2,6-thiadiazinane-3-carbonyl]amino]piperidine-1-carboxylate] | 100 to 10000 | 
CN1C(C(=O)Nc2ccc(F)c(Cl)c2)CC(C(=O)NCc2cnc(-c3cccnc3)s2)NS1(=O)=O (single isomer, unassigned; isomer-b) [Compound 911-ISOMER-B, N3-(3-chloro-4-fluoro-phenyl)-2-methyl-1,1-dioxo-N5-[[2-(3-pyridyl)thiazol-5-yl]methyl]-1,2,6-thiadiazinane-3,5-dicarboxmaide] | < 50 | 
CN1C(C(=O)Nc2ccc(F)c(Cl)c2)CC(C(=O)NCc2cnc(-c3cccc(Cl)c3)s2)NS1(=O)=O (single isomer, unassigned; isomer-b) [Compound 913-ISOMER-B, N3-(3-chloro-4-fluoro-phenyl)-N5-[[2-(3-chlorophenyl)thiazol-5-yl]methyl]-2-methyl-1,1-dioxo-1,2,-thiadiazinane-3,5-dicarboxamide] | < 50 | 
CN1C(C(=O)Nc2ccc(F)c(Cl)c2)CC(C(=O)NC2CCN(c3cc(CN4CCCCC4)ccn3)CC2)NS1(=O)=O (single isomer, unassigned; isomer-b) [Compound 975-ISOMER-B, N3-(3-chloro-4-fluroo-phenyl)-2-methyl-1,1-dioxo-N5-[1-[4-(1-piperidylmethyl)-2-pyridyl]-4-piperidyl]-1,2,6-thiadiazinane-3,5-dicarboxamide] | 100 to 10000 | 
Cc1nc(-c2ccccc2F)sc1[C@@H](NC(=O)C1CC(C(=O)Nc2ccc(F)c(Cl)c2)N(C)S(=O)(=O)N1)c1ccccc1 (single isomer, unassigned; isomer-d) [1101-ISOMER-D] | 100 to 10000 | 
CN1C(C(=O)Nc2ccc(F)c(Cl)c2)CC(C(=O)NC2CCCc3nc(-c4ccc(OCCN5CCCCC5)cc4)sc32)NS1(=O)=O (single isomer, unassigned; isomer-d) [Compound 948-ISOMER-D] | < 50 | 
CN1C(C(=O)Nc2ccc(F)c(Cl)c2)CC(C(=O)NC2CC2c2ccccc2)NS1(=O)=O (centres unmarked) [Compound 476] |  | 50 to 100
COC(=O)N1CCC(NC(=O)C2CC(C(=O)Nc3ccc(F)c(Cl)c3)N(C)S(=O)(=O)N2)CC1 (centres unmarked) [Compound 477] |  | < 50
CN1C(C(=O)Nc2ccc(F)c(Cl)c2)CC(C(=O)Nc2cnn(C)c2)NS1(=O)=O (centres unmarked) [Compound 478] |  | 100 to 10000
CN1C(C(=O)Nc2ccc(F)c(Cl)c2)CC(C(=O)NCc2ccc(C(F)(F)F)cc2)NS1(=O)=O (centres unmarked) [Compound 481] |  | 50 to 100
Cc1cc(CNC(=O)C2CC(C(=O)Nc3ccc(F)c(Cl)c3)N(C)S(=O)(=O)N2)n(C)n1 (centres unmarked) [Compound 482] |  | < 50
CN1C(C(=O)Nc2ccc(F)c(Cl)c2)CC(C(=O)Nc2cccc3cnccc23)NS1(=O)=O (centres unmarked) [Compound 485] |  | < 50
